Source: patent publication US20080267948A1, “Croos-B Structure Binding Compounds” (priority 2005, published 2008)
Entries after “also recorded” stand apart in the source; their conditions may differ.

What was measured:
Type in all cases: biochemical
tPA/plasminogen [1] = biological target: T1, tPA/plasminogen (Homo sapiens, UniProt P00750); assay: tPA/plasminogen activation by OVA heated in the presence of compounds (substrate PNAPEP1751); conditions: 25 μg/ml OVA, 25 μg/ml compound, […] DMSO
T1 construct: purchased Boehringer Ingelheim Actilyse
Procedure, shortened: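 Ovalbumin heated alone in PBS/1% DMSO (positive control) or with compounds at 1 mg/ml, then used 40-fold diluted in a tPA/plasminogen activation assay; buffer without OVA as negative control. Chromogenic substrate conversion read at 405 nm, with compound interference at 405 nm checked; signals related to control.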

tPA/plasminogen [2] = biological target: T1, tPA/plasminogen; assay: tPA/plasminogen activation by pre-formed misfolded OVA in the presence of compounds; conditions: 80-fold or 160-fold diluted compound and misfolded OVA stocks of 1 mg/ml
Procedure: […] Negative control was buffer without OVA. […] In addition, it was assessed whether the compounds interfere with absorbance readings at 405 nm, with converted chromogenic substrate. […] The yellow solution is divided over wells of an ELISA plate. […] Signals are compared and related to the control.

factor XII = biological target: T2, factor XII (Homo sapiens, UniProt P00748); assay: Factor XII activation assay (chromogenic, prekallikrein, Chromozyme-PK); set-up: purchased Calbiochem; conditions: for activation of factor XII by compound alone: without protein cofactor, ellagic acid 50 μg/ml
T2 sequence (P00748 20-615): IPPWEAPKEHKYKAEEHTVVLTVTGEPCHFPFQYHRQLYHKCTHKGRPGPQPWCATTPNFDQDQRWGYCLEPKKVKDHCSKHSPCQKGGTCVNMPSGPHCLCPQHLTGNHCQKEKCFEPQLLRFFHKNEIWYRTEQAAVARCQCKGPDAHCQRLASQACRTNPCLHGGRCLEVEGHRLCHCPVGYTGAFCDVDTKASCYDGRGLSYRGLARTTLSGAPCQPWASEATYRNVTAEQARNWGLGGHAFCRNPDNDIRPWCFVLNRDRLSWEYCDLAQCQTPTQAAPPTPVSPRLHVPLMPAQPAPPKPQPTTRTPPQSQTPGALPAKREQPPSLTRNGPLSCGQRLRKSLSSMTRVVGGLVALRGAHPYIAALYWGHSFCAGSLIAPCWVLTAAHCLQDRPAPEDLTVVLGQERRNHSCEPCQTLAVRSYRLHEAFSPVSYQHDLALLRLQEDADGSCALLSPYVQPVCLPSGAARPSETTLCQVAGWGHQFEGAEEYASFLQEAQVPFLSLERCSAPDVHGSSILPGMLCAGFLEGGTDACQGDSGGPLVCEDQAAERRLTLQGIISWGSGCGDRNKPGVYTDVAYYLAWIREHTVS
Procedure: For this purpose, in a reaction volume of 60 μl the following components were mixed: 10 μl of 300 μg/ml ellagic acid solution or control buffer, 10 μl of 750 μg/ml I or control buffer, 20 μl of a solution comprising [HEPES-buffered saline, 1.96 μg/ml prekallikrein (Calbiochem), 10 mM ZnCl2, 2.13 μg/ml high molecular weight kininogen (Calbiochem); ‘PK mix’ ], 10 μl Chromozyme-PK (Roche, 1 mg/ml aliquot) and 10 μl of a solution comprising 1 mM ZnCl2, HEPES-buffered saline and 4.76 μg/ml factor XII (Calbiochem); ‘FXII mix’. Nunc Immobilizer plates were blocked with PBS with 1% Tween20 for 1 hour at room temperature under constant motion. All reagents were kept on ice throughout preparation of the experiment. The factor XII activating capacity of ellagic acid (Sigma, E-2250, St. Louis, Mo., USA) or I (Cealb, Sanquin, Amsterdam, The Netherlands) alone, and combination thereof was determined in duplicate. After adding 10 μL of I solution or buffer and 10 μl of ellagic acid solution or buffer to the wells, 20 μL of PK mix was added to each well. Ten μL of kallikrein substrate Chromozyme PK was added to each well, followed by 10 μL of freshly prepared FXII mix. Final I and ellagic acid concentrations are 125 μg/ml and 50 μg/ml. Absorbance was measured at 405 nm at 37° C. for 3 hours with brief shaking every minute.

tPA = tPA (Homo sapiens, UniProt P00750); assay: tPA serine protease activity with OVA heated in the presence of compounds (substrate S-2765); set-up: purchased Boehringer Ingelheim Actilyse; conditions: OVA heated with 1 mg/ml compound, 80-, 160- or 320-fold diluted, 100 nM tPA
Procedure: For this purpose, the influence of the compounds on heat-denaturation of OVA was analyzed (see above: Thioflavin T fluorescence measurements). Heated OVA at 1 mg/ml in PBS in the presence or absence of 1 mg/ml of the twelve compounds listed in Table 7 in PBS/DMSO (final DMSO concentration 1%) was used 80-fold or 160-fold or 320-fold diluted (final heated OVA concentration and compound concentration was 12.5 or 6.3 or 3.1 μg/ml; final DMSO concentration was 0.013% and 0.006% and 0.003%).

T1 sequence (P00750 36-562): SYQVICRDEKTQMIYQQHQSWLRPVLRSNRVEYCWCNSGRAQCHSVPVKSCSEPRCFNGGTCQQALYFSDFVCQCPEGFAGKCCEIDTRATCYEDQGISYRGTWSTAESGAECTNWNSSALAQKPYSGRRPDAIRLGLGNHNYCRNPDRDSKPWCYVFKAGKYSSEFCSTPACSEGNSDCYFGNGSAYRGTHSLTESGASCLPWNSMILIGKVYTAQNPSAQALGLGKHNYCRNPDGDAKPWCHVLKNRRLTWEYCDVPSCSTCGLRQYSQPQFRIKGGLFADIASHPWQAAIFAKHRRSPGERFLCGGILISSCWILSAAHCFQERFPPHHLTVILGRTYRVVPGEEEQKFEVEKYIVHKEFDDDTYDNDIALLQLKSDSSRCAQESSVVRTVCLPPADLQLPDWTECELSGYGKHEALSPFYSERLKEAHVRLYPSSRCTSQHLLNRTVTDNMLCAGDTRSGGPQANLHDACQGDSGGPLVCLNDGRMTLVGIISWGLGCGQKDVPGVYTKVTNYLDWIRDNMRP
Sequence of tPA (P00750 36-562): as above

O=c1oc2c(O)c(O)cc3c(=O)oc4c(O)c(O)cc1c4c23 [compound 117, Ellagic acid hydrate]
influence on tPA/plasminogen activation by OVA pre-heated in the presence of compound (tPA/plasminogen [1]): Inhibition of tPA/plasminogen activation by OVA pre-heated
influence on tPA/plasminogen activation by pre-formed misfolded OVA (tPA/plasminogen [2]): Full block of tPA/plasminogen activation by misfolded OVA
activation of factor XII/kallikrein generation, compound combined with human serum albumin (factor XII; 50 μg/ml ellagic acid with 125 μg/ml HSA, hydrate): potent activator of kallikrein generation; also recorded: kallikrein substrate Chromozyme-PK conversion is only observed when in addition 125 μg/ml HSA is included in the assay
Activation of factor XII (summary) (factor XII; summary Table 9): Activation of factor XII
activation of factor XII by compound alone (factor XII; listed as Ellagic acid, hydrate): factor XII/kallikrein activity comparable to control buffer
activation of factor XII by compound alone (factor XII; listed as ellagic acid, hydrate): poor activators of factor XII
influence on tPA protease activity of OVA heated in the presence of compound (tPA): Potentiation of tPA protease activity
